Experimental data reported in US12044651B2, “Sensor device and methods” (SCENTIAN BIO LIMITED, priority 2016, dated 2024).

Assays:
Or10a = target: T1, Or10a (Drosophila melanogaster, UniProt Q9VYZ1); assay: CNT-FET sensor covalently functionalized with OR10a nanodiscs (Example 3); format: binding; details: for current response: increasing additions of ligand
T1 sequence (Q9VYZ1 1-406): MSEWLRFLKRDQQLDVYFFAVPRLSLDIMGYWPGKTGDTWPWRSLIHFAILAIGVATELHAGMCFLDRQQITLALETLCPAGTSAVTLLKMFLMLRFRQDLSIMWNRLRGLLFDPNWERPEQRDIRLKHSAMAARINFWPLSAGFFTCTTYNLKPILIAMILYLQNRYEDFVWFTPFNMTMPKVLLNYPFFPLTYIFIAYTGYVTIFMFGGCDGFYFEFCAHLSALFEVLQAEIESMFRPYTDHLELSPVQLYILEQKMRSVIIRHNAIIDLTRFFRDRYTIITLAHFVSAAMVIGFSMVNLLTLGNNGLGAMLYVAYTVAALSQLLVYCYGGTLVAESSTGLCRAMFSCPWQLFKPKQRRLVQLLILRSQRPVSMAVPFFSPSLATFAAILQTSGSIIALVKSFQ
Experimental: The dispersion was sonicated until a clear solution was obtained. The temperature was kept at 25° C. throughout the sonication process. The thiolpyridine solution was prepared by dissolving 10 mg of 2-Mercaptopyridine (99%, Sigma Aldrich) in 1 ml of methanol. The solution was spun coated on a polydimethylsiloxane (PDMS) surface at 2000 rpm for one minute. Before the spin coating process, the PDMS surface was cleaned by a 50 W Oxygen plasma for 1 minute to improve the wettability. The cleaned substrates were placed upside down on the PDMS surface for three minutes and washed in ethanol to remove the excess thiolpyridine molecules. Then the substrates were transferred into the CNT suspension and immersed into the suspension for 10 minutes. The samples were removed from the suspension and dipped into Ethanol for another 10 minutes to remove the thiolpyridine molecules in the SWNT network. The alignment markers were deposited by defining the markers by photolithography and thermal evaporation of 5 nm Chromium and 50 nm of Gold. The metal Lift off was done by acetone immersion for 15 minutes followed by an Isopropyl alcohol (IPA) wash and N2 blow dry. The result is a uniform thin film CNT network covering the entire substrate surface. The purification procedure is a variation on the one detailed in […] et al. 2013^14. […] The cell pellet was collected by centrifugation at 3800 g for 10 min at room temperature and then resuspended in 40 mL of resuspension buffer A (20 mM Tris/HCl pH 7.5, 100 mM NaCl, 1× protease inhibitor cocktail (Roche Diagnostics GmbH, Germany)), with 25 U/mL Benzonase, then lysed by two passes on an Emulsiflex C5 emulsifier (Avestin, Germany) at 10,000-15,000 psi. The sample was then centrifuged at 1000 g for 5 min to remove whole cells and nuclei. The supernatant was removed and spun at 100,000 g for 1 h at 4° C. The membrane pellet was resuspended in 40 mL of buffer A with 1% w/v detergent (Zwittergent 3-16) and rotated for 1 h at room temperature at 10 rpm. The sample was then centrifuged at 100,000 g for 1 h at 18° C. The supernatant was removed and loaded onto a 1 mL NiNTA column (GE Healthcare) where the zwittergent 3-16 detergent was exchanged to Fos-Choline 14 (FC-14). The column was washed in ten column volumes of buffer B (20 mM Tris/HCl pH 7.5, 3.6 mM FC-14) with 300 mM NaCl and 20 mM imidazole, and a further ten column volumes of buffer B with 100 mM NaCl and 50 mM imidazole. Protein was eluted with four column volumes buffer B with 100 mM NaCl and 500 mM imidazole. Purity was assessed on Coomassie stained SDS-PAGE gels and Western blotting. Purification was completed with a final size exclusion chromatography (SEC) step. […]

Or22a = target: T2, Or22a (Drosophila melanogaster, UniProt P81909); assay: CNT-FET sensor covalently functionalized with Or22a nanodiscs (Example 3); format: binding
T2 sequence (P81909 1-397): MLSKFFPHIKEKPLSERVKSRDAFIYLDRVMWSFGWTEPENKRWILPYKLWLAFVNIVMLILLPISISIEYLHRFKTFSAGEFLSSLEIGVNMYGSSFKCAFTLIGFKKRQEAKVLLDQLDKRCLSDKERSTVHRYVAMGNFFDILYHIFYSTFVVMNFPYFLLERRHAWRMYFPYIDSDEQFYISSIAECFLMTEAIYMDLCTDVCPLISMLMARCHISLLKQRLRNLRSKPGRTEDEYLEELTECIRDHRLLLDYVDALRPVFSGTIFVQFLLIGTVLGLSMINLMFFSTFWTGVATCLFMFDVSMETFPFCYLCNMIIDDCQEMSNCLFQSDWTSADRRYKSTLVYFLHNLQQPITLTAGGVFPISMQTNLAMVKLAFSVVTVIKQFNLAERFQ
Experimental: The dispersion was sonicated until a clear solution was obtained. The temperature was kept at 25° C. throughout the sonication process. The thiolpyridine solution was prepared by dissolving 10 mg of 2-Mercaptopyridine (99%, Sigma Aldrich) in 1 ml of methanol. The solution was spun coated on a polydimethylsiloxane (PDMS) surface at 2000 rpm for one minute. Before the spin coating process, the PDMS surface was cleaned by a 50 W Oxygen plasma for 1 minute to improve the wettability. The cleaned substrates were placed upside down on the PDMS surface for three minutes and washed in ethanol to remove the excess thiolpyridine molecules. Then the substrates were transferred into the CNT suspension and immersed into the suspension for 10 minutes. The samples were removed from the suspension and dipped into Ethanol for another 10 minutes to remove the thiolpyridine molecules in the SWNT network. The alignment markers were deposited by defining the markers by photolithography and thermal evaporation of 5 nm Chromium and 50 nm of Gold. The metal Lift off was done by acetone immersion for 15 minutes followed by an Isopropyl alcohol (IPA) wash and N2 blow dry. The result is a uniform thin film CNT network covering the entire substrate surface. The purification procedure is a variation on the one detailed in […] et al. 2013^14. […] Purity was assessed on Coomassie stained SDS-PAGE gels and Western blotting. […]

[1] = real time current measurement mode

limit of detection (Or10a; nanodiscs 1:100 dilution)	concentration at which clear electronic response starts (Or10a; [1]) [fM]	SMILES	current response (Or10a; nanodiscs 1:100 dilution)	limit of detection (Or22a; nanodiscs 1:100 dilution)	concentration at which clear electronic response starts (Or22a; [1]) [fM]
–	–	CCC/C=C/C=O [E2-hexenal]	no response	–	–
–	–	CCCCCC(=O)OC [methyl hexanoate]	–	below 1 fM	1
below 1 fM	1	COC(=O)c1ccccc1O [methyl salicylate]	consistently large decreases	–	–
